In the supplement of paper PMC10307832:

Assays:
Experiment in all cases: relative viability (nuclei count vs DMSO), 5 days (fraction); higher = more cells survive
AZD6482 + AZD7762 = compound: Cc1cc([C@@H](C)Nc2ccccc2C(=O)O)c2nc(N3CCOCC3)cc(=O)n2c1 [AZD6482] + NC(=O)Nc1cc(-c2cccc(F)c2)sc1C(=O)N[C@H]1CCCNC1 [AZD7762] (partner 0.2 µM)
Outline: (§1)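 One day after seeding in 1536-well plates, lung cancer cell lines were dosed by pin tool. Dosing was either single-drug or a fixed anchor-drug dose plus five library-drug doses (not always all listed) in √10 steps. After 5 days, nuclei were stained in one fix-and-stain step and counted on 4× images, and relative viability is the nuclei count of treated wells over that of vehicle wells, given as the median of duplicate plates.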

AZD6482 + Luminespib = compound: Cc1cc([C@@H](C)Nc2ccccc2C(=O)O)c2nc(N3CCOCC3)cc(=O)n2c1 [AZD6482] + CCNC(=O)c1noc(-c2cc(C(C)C)c(O)cc2O)c1-c1ccc(CN2CCOCC2)cc1 [Luminespib] (partner 0.01 µM)
Outline: as §1

[1] = compound: COc1cc2nc(N3CCCN(C)CC3)nc(NC3CCN(Cc4ccccc4)CC3)c2cc1OC + COc1cccc2cc(-c3nc([C@H]4CC[C@H](C(=O)O)CC4)n4ncnc(N)c34)[nH]c12 [OSI-027] (partner 0.5 µM)
Outline: as §1

AZD6482 + Lapatinib = compound: Cc1cc([C@@H](C)Nc2ccccc2C(=O)O)c2nc(N3CCOCC3)cc(=O)n2c1 [AZD6482] + CS(=O)(=O)CCNCc1ccc(-c2ccc3ncnc(Nc4ccc(OCc5cccc(F)c5)c(Cl)c4)c3c2)o1 [Lapatinib] (partner 2 µM)
Outline: as §1

| Cell Line | relative viability (AZD6482 + AZD7762; first compound 0.08 µM) | relative viability (AZD6482 + AZD7762; first compound 0.253 µM) | relative viability (AZD6482 + AZD7762; first compound 0.8 µM) | relative viability (AZD6482 + AZD7762; first compound 2.53 µM) | relative viability (AZD6482 + AZD7762; first compound 8 µM) | relative viability (AZD6482 + Luminespib; first compound 0.08 µM) | relative viability (AZD6482 + Luminespib; first compound 0.253 µM) | relative viability (AZD6482 + Luminespib; first compound 0.8 µM) | relative viability (AZD6482 + Luminespib; first compound 2.53 µM) | relative viability (AZD6482 + Luminespib; first compound 8 µM) | relative viability ([1]; first compound 0.2 µM) | relative viability ([1]; first compound 0.6325 µM) | relative viability ([1]; first compound 2 µM) | relative viability ([1]; first compound 6.325 µM) | relative viability (AZD6482 + Lapatinib; first compound 0.08 µM) | relative viability (AZD6482 + Lapatinib; first compound 0.253 µM) | relative viability (AZD6482 + Lapatinib; first compound 0.8 µM) | relative viability (AZD6482 + Lapatinib; first compound 2.53 µM) | relative viability (AZD6482 + Lapatinib; first compound 8 µM) |
| --- | --- | --- | --- | --- | --- | --- | --- | --- | --- | --- | --- | --- | --- | --- | --- | --- | --- | --- | --- |
| LK-2 | 0.386 | 0.362 | 0.434 | 0.239 | 0.271 | 0.231 | 0.187 | 0.229 | 0.177 | 0.167 | 0.197 | 0.221 | 0.196 | 0.214 | 1.13 | 0.645 | 0.959 | 0.767 | 0.815 |
| LOU-NH91 | 0.695 | 0.69 | 0.704 | 0.519 | 0.543 | 0.326 | 0.293 | 0.343 | 0.27 | 0.335 | 0.75 | 0.761 | 0.625 | 0.74 | 0.626 | 0.752 | 0.681 | 0.501 | 0.494 |
| LU99A | 0.338 | 0.356 | 0.254 | 0.317 | 0.344 | 0.323 | 0.26 | 0.334 | 0.237 | 0.238 | 0.319 | 0.292 | 0.26 | 0.278 | 0.972 | 0.881 | 0.938 | 0.751 | 0.866 |
| LXF-289 | 1.11 | 1.13 | 1.26 | 0.982 | 0.956 | 0.688 | 0.655 | 0.724 | 0.409 | 0.379 | 0.696 | 0.761 | 0.791 | 0.768 | 0.924 | 0.913 | 0.892 | 0.821 | 0.937 |
| NCI-H23 | 0.317 | 0.223 | 0.236 | 0.201 | 0.219 | 0.235 | – | 0.249 | 0.207 | 0.201 | 0.637 | 0.578 | 0.707 | 0.503 | 1.03 | 0.848 | 1.32 | 0.644 | 0.855 |
| NCI-H322M | 0.647 | 0.623 | 0.587 | 0.421 | 0.405 | 0.776 | 0.472 | 0.783 | 0.465 | 0.496 | 0.546 | 0.504 | 0.595 | 0.423 | 0.53 | 0.441 | 0.561 | 0.357 | 0.495 |
| NCI-H358 | 0.545 | 0.487 | 0.549 | 0.302 | 0.439 | 0.422 | 0.485 | 0.338 | 0.173 | 0.199 | 0.734 | 0.831 | 0.845 | 0.626 | 0.443 | 0.417 | 0.386 | 0.258 | 0.365 |
| NCI-H460 | 0.618 | 0.674 | 0.791 | 0.459 | 0.568 | 0.0355 | 0.0327 | 0.0426 | 0.0315 | 0.0378 | 0.669 | 0.674 | 0.565 | 0.63 | 0.869 | 0.796 | 1.17 | 0.585 | 0.758 |
